Experimental data taken from ChEMBL document CHEMBL1138929, “Development of peptidic dopamine transporter inhibitors via aromatic modification-mediated conformational restriction” (J Med Chem, 2006).
Starred links: 1 amine or outer side, 2 acyl side, 3 side chain; linkers in the order of their positions; H or OH if unused. Non-standard residues stand in square brackets, D forms with d. Residues, ends and D or L forms follow the SMILES beside them. *: point of attachment. X1 = O=C([C@H](Cc1ccc(O)c(Cc2ccccc2)c1)N[*:1])[*:2]; Bpa = N[C@@H](Cc1ccc(C(=O)c2ccccc2)cc1)C(=O)O; Bip = N[C@@H](Cc1ccc(-c2ccccc2)cc1)C(=O)O; 1Nal = N[C@@H](Cc1cccc2ccccc12)C(=O)O; 2Nal = N[C@@H](Cc1ccc2ccccc2c1)C(=O)O; Bn = c1ccc(C*)cc1

What was measured:
[1] = biological target: T1, Sodium-dependent dopamine transporter (Rattus norvegicus, UniProt P23977); test: Inhibition of rat DAT-mediated [3H]dopamine uptake in CHO cells; type: cell-based
Mus musculus [2] = test: Effect on 10 mg/kg cocaine-induced place preference in BALB/c mouse at 10 mg/kg, sc measured as pre and procondition time difference; type: functional
Mus musculus [3] = test: Effect on place preference in BALB/c mouse at 20 mg/kg, sc measured as pre and procondition time difference; type: functional; conditions: route subcutaneous
Mus musculus [4] = test: Effect on cocaine-induced place preference in BALB/c mouse at 10 mg/kg, sc measured as pre and procondition time difference; type: functional; conditions: route subcutaneous
[5] = biological target: Sodium-dependent noradrenaline transporter (Rattus norvegicus) (UniProt P31652); test: Inhibition of rat NET-mediated norepinephrine uptake in CHO cells; conditions: cho
Sodium-dependent noradrenaline transporter (Rattus norvegicus), sequence (P31652 whole entry, looked up): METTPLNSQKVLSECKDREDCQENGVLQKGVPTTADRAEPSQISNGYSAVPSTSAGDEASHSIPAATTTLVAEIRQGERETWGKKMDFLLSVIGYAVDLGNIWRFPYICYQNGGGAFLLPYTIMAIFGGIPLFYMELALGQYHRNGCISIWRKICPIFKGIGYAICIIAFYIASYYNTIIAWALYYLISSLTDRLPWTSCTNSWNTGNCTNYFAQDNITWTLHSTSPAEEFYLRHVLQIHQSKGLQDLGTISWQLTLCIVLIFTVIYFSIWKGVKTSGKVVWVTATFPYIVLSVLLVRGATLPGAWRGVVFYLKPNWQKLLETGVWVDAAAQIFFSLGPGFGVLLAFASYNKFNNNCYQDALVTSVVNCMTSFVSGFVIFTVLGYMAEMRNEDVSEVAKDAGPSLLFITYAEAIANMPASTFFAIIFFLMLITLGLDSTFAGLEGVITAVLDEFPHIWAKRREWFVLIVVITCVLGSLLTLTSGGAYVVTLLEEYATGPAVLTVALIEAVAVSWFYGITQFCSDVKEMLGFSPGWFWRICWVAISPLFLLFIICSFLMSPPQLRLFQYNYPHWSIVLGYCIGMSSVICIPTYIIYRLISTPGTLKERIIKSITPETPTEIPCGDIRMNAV

[6] = biological target: Sodium-dependent serotonin transporter (Rattus norvegicus, UniProt P31652); test: Inhibition of rat SERT-mediated serotonin uptake in CHO cells; type: cell-based
Sodium-dependent serotonin transporter, sequence (P31652 whole entry): as the sequence (P31652 whole entry, looked up) above

[7] = biological target: Sodium- and chloride-dependent GABA transporter 1 (Mus musculus, UniProt P31648); test: Inhibition of mouse GAT1-mediated gamma-aminobutyric acid uptake in CHO cells; type: cell-based
[8] = biological target: Sodium-dependent noradrenaline transporter, Rattus norvegicus; test: Inhibition of rat NET-mediated norepinephrine uptake in CHO cells
[9] = biological target: T1, Sodium-dependent dopamine transporter; test: Inhibition of [3H]WIN-35428 binding to rat DAT expressed in D8 cells; type: cell-based
Mus musculus [10] = test: Effect on place preference in BALB/c mouse at 10 mg/kg measured as pre and procondition time difference; type: functional
[11] = substrate: CC(c1ccc(-c2ccc(C[C@H](N)C(=O)O)cc2)cc1)[C@H](N)C(=O)N[C@@H](Cc1ccc(O)cc1)C(=O)N[C@H](C(=O)N1CCC[C@H]1C(=O)N[C@H](C(=O)NCC(=O)O)[C@@H](C)OCc1ccccc1)[C@@H](C)O; conditions: Rattus norvegicus; D8; 250 nM
Description: Inhibition of rat DAT-mediated [3H]dopamine accumulation in D8 cells at 250 nM

[12] = substrate: CC(c1ccc(-c2ccc(C[C@H](N)C(=O)O)cc2)cc1)[C@H](N)C(=O)N[C@@H](Cc1ccc(O)cc1)C(=O)N[C@H](C(=O)N1CCC[C@H]1C(=O)N[C@H](C(=O)NCC(=O)O)[C@@H](C)OCc1ccccc1)[C@@H](C)O; conditions: Rattus norvegicus; D8; 600 nM
Description: Inhibition of rat DAT-mediated [3H]dopamine accumulation in D8 cells at 600 nM

C[C@@H](O)[C@H](NC(=O)[C@H](CCCCN)NC(=O)[C@@H]1CCCN1C(=O)[C@@H](NC(=O)[C@H](Cc1ccc(O)cc1)NC(=O)[C@H](Cc1ccccc1)NC(=O)[C@@H](N)Cc1ccccc1)[C@@H](C)O)C(=O)O (H-FFYTPKT-OH)
IC50 [1]: > 1000 µM

C[C@@H](O)[C@H](NC(=O)[C@H](Cc1ccc(O)cc1)NC(=O)[C@@H](N)Cc1cccc2ccccc12)C(=O)N1CCC[C@H]1C(=O)N[C@@H](CCCCN)C(=O)N[C@H](C(=O)NCC(=O)O)[C@@H](C)OCc1ccccc1 (H-[1Nal]YTPKT(Bn)G-OH)
IC50 [1]: 199 µM

C[C@@H](O)[C@H](NC(=O)[C@H](Cc1ccc(O)cc1)NC(=O)[C@@H](N)Cc1ccc2ccccc2c1)C(=O)N1CCC[C@H]1C(=O)N[C@@H](CCCCN)C(=O)N[C@H](C(=O)NCC(=O)O)[C@@H](C)OCc1ccccc1 (H-[2Nal]YTPKT(Bn)G-OH)
IC50 [1]: 184 µM

C[C@H](NC(=O)[C@@H](N)Cc1ccc(-c2ccccc2)cc1)C(=O)N[C@H](C(=O)N1CCC[C@H]1C(=O)N[C@@H](CCCCN)C(=O)N[C@H](C(=O)NCC(=O)O)[C@@H](C)OCc1ccccc1)[C@@H](C)O (H-[Bip]ATPKT(Bn)G-OH)
IC50 ([1]; cho): 173 µM

C[C@H](NC(=O)[C@H](Cc1ccc(O)cc1)NC(=O)[C@@H](N)Cc1ccc(-c2ccccc2)cc1)C(=O)N1CCC[C@H]1C(=O)N[C@@H](CCCCN)C(=O)N[C@H](C(=O)NCC(=O)O)[C@@H](C)OCc1ccccc1 (H-[Bip]YAPKT(Bn)G-OH)
IC50 ([1]; cho): 11 µM

C[C@@H](O)[C@H](NC(=O)[C@H](CCCCN)NC(=O)[C@@H]1CCCN1C(=O)[C@@H](NC(=O)[C@H](Cc1ccc(O)cc1)NC(=O)[C@@H](N)Cc1ccc(-c2ccccc2)cc1)[C@@H](C)OCc1ccccc1)C(=O)NCC(=O)O (H-[Bip]YT(Bn)PKTG-OH)
IC50 ([1]; cho): 20 µM

C[C@H](NC(=O)[C@@H](NC(=O)[C@H](Cc1ccc(O)cc1)NC(=O)[C@@H](N)Cc1ccc(-c2ccccc2)cc1)[C@@H](C)O)C(=O)N[C@@H](CCCCN)C(=O)N[C@H](C(=O)NCC(=O)O)[C@@H](C)OCc1ccccc1 (H-[Bip]YTAKT(Bn)G-OH)
IC50 ([1]; cho): > 1000 µM

C[C@H](NC(=O)[C@@H](NC(=O)[C@H](Cc1ccc(O)cc1)NC(=O)[C@@H](N)Cc1ccc(-c2ccccc2)cc1)[C@@H](C)O)C(=O)N[C@H](C(=O)NCC(=O)O)[C@@H](C)OCc1ccccc1 (H-[Bip]YTAT(Bn)G-OH) [listing 1 of 2 here]
IC50 ([1]; cho): > 1000 µM

C[C@H](NC(=O)[C@@H](NC(=O)[C@H](Cc1ccc(O)cc1)NC(=O)[C@@H](N)Cc1ccc(-c2ccccc2)cc1)[C@@H](C)O)C(=O)N[C@H](C(=O)NCC(=O)O)[C@@H](C)OCc1ccccc1 (H-[Bip]YTAT(Bn)G-OH) [listing 2 of 2 here]
Activity (Mus musculus [2]): 200 s | Activity (Mus musculus [3]): -14 s | Activity (Mus musculus [4]): 209 s

C[C@H](NC(=O)[C@@H]1CCCN1C(=O)[C@@H](NC(=O)[C@H](Cc1ccc(O)cc1)NC(=O)[C@@H](N)Cc1ccc(-c2ccccc2)cc1)[C@@H](C)O)C(=O)N[C@H](C(=O)NCC(=O)O)[C@@H](C)OCc1ccccc1 (H-[Bip]YTPAT(Bn)G-OH)
IC50 ([1]; cho): 1.7 µM

C[C@@H](O)[C@H](NC(=O)[C@H](Cc1ccc(O)cc1)NC(=O)[C@@H](N)Cc1ccc(-c2ccccc2)cc1)C(=O)N1CCC[C@H]1C(=O)N[C@@H](CCCCN)C(=O)N[C@H](C(=O)NCC(=O)O)[C@@H](C)OCc1ccccc1 (H-[Bip]YTPKT(Bn)G-OH)
IC50 ([1]; cho): 1.8 µM

C[C@@H](O)[C@H](NC(=O)[C@H](CCCCN)NC(=O)[C@@H]1CCCN1C(=O)[C@@H](NC(=O)[C@H](Cc1ccc(O)cc1)NC(=O)[C@@H](N)Cc1ccc(-c2ccccc2)cc1)[C@@H](C)O)C(=O)O (H-[Bip]YTPKT-OH)
IC50 [5]: > 1000 µM | IC50 ([6]; cho): > 1000 µM | IC50 ([7]; cho): > 1000 µM | IC50 ([1]; cho): 19 µM

C[C@@H](O)[C@H](NC(=O)[C@H](Cc1ccc(O)cc1)NC(=O)[C@@H](N)Cc1ccc(-c2ccccc2)cc1)C(=O)N1CCC[C@H]1C(=O)N[C@H](C(=O)NCC(=O)O)[C@@H](C)OCc1ccccc1 (H-[Bip]YTPT(Bn)G-OH) [listing 1 of 2 here]
IC50 [8]: 90 µM | IC50 [6]: 110 µM | IC50 [7]: > 1000 µM | IC50 [1]: 0.3 µM | IC50 [9]: 0.494 µM

C[C@@H](O)[C@H](NC(=O)[C@H](Cc1ccc(O)cc1)NC(=O)[C@@H](N)Cc1ccc(-c2ccccc2)cc1)C(=O)N1CCC[C@H]1C(=O)N[C@H](C(=O)NCC(=O)O)[C@@H](C)OCc1ccccc1 (H-[Bip]YTPT(Bn)G-OH) [listing 2 of 2 here]
Activity (Mus musculus [2]): 78 s | Activity (Mus musculus [3]): -16 s | Activity (Mus musculus [4]): 61 s

C[C@@H](O)[C@H](NC(=O)[C@H](CCCCN)NC(=O)[C@@H]1CCCN1C(=O)[C@@H](NC(=O)[C@H](Cc1ccc(O)c(Cc2ccccc2)c1)NC(=O)[C@@H](N)Cc1ccc(-c2ccccc2)cc1)[C@@H](C)O)C(=O)O (H-[Bip][X1]TPKT-OH)
IC50 ([1]; cho): 10 µM

C[C@@H](O)[C@H](NC(=O)[C@H](Cc1ccc(O)cc1)NC(=O)[C@@H](N)Cc1ccc(C(=O)c2ccccc2)cc1)C(=O)N1CCC[C@H]1C(=O)N[C@@H](CCCCN)C(=O)N[C@H](C(=O)NCC(=O)O)[C@@H](C)OCc1ccccc1 (H-[Bpa]YTPKT(Bn)G-OH)
IC50 [1]: 239 µM

COC(=O)[C@H]1[C@@H](OC(=O)c2ccccc2)C[C@@H]2CC[C@H]1N2C [COCAINE]
Activity (Mus musculus [10]): 194 s

B1: Sodium-dependent dopamine transporter (Rattus norvegicus), P23977 (protein)
chain: MSKSKCSVGPMSSVVAPAKESNAVGPREVELILVKEQNGVQLTNSTLINPPQTPVEAQERETWSKKIDFLLSVIGFAVDLANVWRFPYLCYKNGGGAFLVPYLLFMVIAGMPLFYMELALGQFNREGAAGVWKICPVLKGVGFTVILISFYVGFFYNVIIAWALHYFFSSFTMDLPWIHCNNTWNSPNCSDAHASNSSDGLGLNDTFGTTPAAEYFERGVLHLHQSRGIDDLGPPRWQLTACLVLVIVLLYFSLWKGVKTSGKVVWITATMPYVVLTALLLRGVTLPGAMDGIRAYLSVDFYRLCEASVWIDAATQVCFSLGVGFGVLIAFSSYNKFTNNCYRDAIITTSINSLTSFSSGFVVFSFLGYMAQKHNVPIRDVATDGPGLIFIIYPEAIATLPLSSAWAAVFFLMLLTLGIDSAMGGMESVITGLVDEFQLLHRHRELFTLGIVLATFLLSLFCVTNGGIYVFTLLDHFAAGTSILFGVLIEAIGVAWFYGVQQFSDDIKQMTGQRPNLYWRLCWKLVSPCFLLYVVVVSIVTFRPPHYGAYIFPDWANALGWIIATSSMAMVPIYATYKFCSLPGSFREKLAYAITPEKDHQLVDRGEVRQFTLRHWLLL
Km [11]: 2.42 µM | Km [12]: 3.6 µM
